Experimental data reported in patent US20210355418A1, “ELECTRODE HAVING NANO STRUCTURE AT TIP” (Ion Chat Research Corporate, priority 2018, published 2021).

Columns and labels:
Type in all cases: cell-based
[1] = system: NG108-15 neurons; test: Action potential recording with 3-electrode MagEle; settings: 10 uM; cells differentiated by 2% FBS, 10 μM Forskolin
From the text: When manufacturing multiple electrodes using MagEle, two types of magnets, a fixed magnet, and an electrode magnet, are used. Wrap the fixed electrodes in a non-conductive material such as parafilm, and attach strip-shaped electrodes made of 2 to 4 pieces of aluminum foil.
This aluminum foil electrode is fixed by magnetic force to the electrode magnet from below, the side surface of the electrode magnet other than facing the cells is wrapped with a non-conductive material such as parafilm to insulate it, and “Clip on ground” is attached above the fixed magnet. A holder for fixing the manipulator is attached (FIG. 20).
Recording was performed from NG108-15 neurons differentiated by 2% FBS, 10 μM Forskolin treatment using the 3-electrode MagEle prepared in (8-1) above (FIG. 22).

[2] = system: differentiated NG108-15 cells; test: Intracellular potential measurement by patch clamp method; settings: 10 mM
Procedure: More specifically, a solution containing 2% H.A.T. in DMEM (Sigma-Aldrich) containing 10% FBS (Biowest) was used as the culture medium. According to the literature, in order to differentiate NG108-15 cells into nerve-like cells, FBS in the culture medium is reduced to 2% and the intracellular cAMP concentration is increased by applying the membrane-permeable cAMP (Dibutyryl-cAMP), but in this protocol, it was replaced with 10 uM forskolin. The culture medium was changed at intervals of 2 to 3 days.
This experiment verified that the intracellular potential was induced by glutamate in NG108-15 differentiated cells adjusted in (1-1) using the conventional patch-clamp method.
More specifically, using a glass pipette filled with an intracellular electrolyte solution containing 10 mM glutamate to differentiated NG108-15 cells, the cell membranes were tightly adhered and the glass pipette and cells were electrically integrated.

[3] = system: NG108-15 cells; test: Intracellular potential recording of cultured nerve cells with C-M magnet electrode; settings: final external fluid concentration 800 μM; 2 days neural differentiation
Procedure: NG108-15 cells were used for the purpose of showing that recording is possible from cultured nerve cells. NG108-15 cells (neuroblastoma-glioma hybrid cells) were cultured in a culture medium containing DMEM (Sigma-Aldrich), HAT supplement (Thermofisher) and 10% FBS (Biowest). NG108-15 was seeded on a cover glass that was coated with 0.1% Polyethyleneimine (pH8.4, 150 mM Sodium Tetra-Borate (Wako)), and cultured in the culture medium, in which FBS concentration was reduced to 5% from the above culture medium, and the nerve differentiation was induced by adding 500 μM Ibuprofen (Wako). […]
PEI and PEG-gold coated magnetic nanoparticles were mixed and left at room temperature for three hours. This mixed solution is moved to the cell-adhesive surface of the neodymium magnet and left for additional fifteen minutes to magnetically bond the gold nanoparticles to the neodymium magnet electrode. […]
Spontaneous action potentials were recorded by placing C-M electrode on cells seeded on coverslips. […]
In addition to the spontaneous action potential, the following experiment was conducted to confirm whether the neuronal activity by the neurotransmitter glutamate can be recorded. […] Glutamic acid was administered to the extracellular fluid (final external fluid concentration 800 μM), and the response mediated by glutamate receptors was recorded. […]

[4] = system: differentiated NG108-15 cells; test: Intracellular recording with integrated electrode having nano-protrusion structure at the tip, pressed by manipulator; settings: 10 mM, integrated electrode fixed with manipulator
Procedure: More specifically, 0.5 μl PEI (10 mg/ml), 20 ul gold-coated magnetic nanoparticles (NITmagold Cit manufactured by na noimmunotech), and 5 μl of 5 times the concentration HBPS (final concentration of calcium and magnesium is 1 mM) were mixed. It was kept at room temperature for 30 minutes or more. The recording surface of the magnet electrode is fixed upward, the mixed solution is dropped onto the recording surface, adsorbed by magnetic force, and the solution is evaporated at room temperature (Magele).
As shown in the middle drawing of FIG. 3, the entire side surface of the electrode was inserted into a silicon tube (Tyg on) of an insulator to cover it, and the area in contact with the extracellular fluid was further covered with aluminum foil as a ground material. Through the above process, the integrated electrode of the present invention was produced.
The integrated electrode was pressed onto the differentiated NG108-15 cells using a manipulator (FIG. 2), and the integrated electrode was fixed in a state where the nano-protrusion at the tip penetrated the cell membrane and the cells were not crushed. […]
After activating the differentiated NG108-15 cells with 10 mM glutamate, the intracellular potential was measured with an integrated electrode fixed with a manipulator.

[5] = system: cardiomyocyte-like cells (iCell Cardiomyocyte2); test: Action potential recording of cardiomyocyte-like cells on conductive glass, charge amplifier (CHAMPL) mode; settings: final concentration 100 μM in physiological saline, room temperature
Procedure: Experiments were conducted using myocardial-like cells (iCell Cardiomyocyte2, CDI) as a typical example of cells with low adhesion efficiency to the surface of conductive glass. In order to improve the adhesiveness, the cells were cultured on the surface of conductive glass coated with collagen (Collagen) in a grid pattern in advance. Gold-coated magnetic nanoparticles were introduced into myocardial-like cells and penetrated the cell membrane by a magnetic field. Sodium channels were activated by sodium channel openers such as veratridine and the resulting action potentials were recorded. This experiment was performed at room temperature. […]
Next, using SLO, gold-coated magnetic nanoparticles were introduced into the cell. […] Two days later, the culture medium was replaced with physiological saline before the experiment, and the action potentials of the cells were recorded at room temperature using the charge amplifier mode (ChargeAmpLifier (CHAMPL) mode) (FIG. 10).
However, since the spontaneous action potential could not be observed in this sample (data not shown), Veratridine (Sigma-Aldrich), which acts as a sodium channel opener, was administered to a final concentration of 100 μM in physiological saline. […] Slow depolarization was observed 40 seconds after Veratridine administration, followed by spontaneous action potentials recorded (FIG. 11).

SMILES: CC(=O)OCC[N+](C)(C)C [Ach]
- activity of nerve cell groups [1]: activity of all nerve cell groups was increased

SMILES: N[C@@H](CCC(=O)O)C(=O)O [Glutamate, Glutamic acid]
- intracellular potential response [2]: induced a slow depolarization and action potentials
- membrane potential response mediated by glutamate receptors [3]: depolarization (upward change) response of the membrane potential
- time for membrane potential change to return to baseline [3]: about 90 seconds
- intracellular potential response [4]: Action potentials and slow depolarization were recorded

SMILES: COc1ccc(C(=O)O[C@H]2CC[C@@]3(C)[C@@H]4CC[C@H]5[C@]6(O)C[C@H](O)[C@@]7(O)[C@@H](CN8C[C@@H](C)CC[C@H]8[C@@]7(C)O)[C@]6(O)C[C@@]53O[C@]24O)cc1OC [Veratridine]
- time to slow depolarization after administration [5]: 40 s
